The record followed here is US20200208111A1, “GENOME-EDITED NK CELL AND METHODS OF MAKING AND USING” (REGENTS OF THE UNIVERSITY OF MINNESOTA, priority 2016, published 2020).

In one series the test system is PD1. As to the kind of experiment: CRISPR/Cas9 gene editing at PD1 in primary human NK cells, Surveyor nuclease activity assay. In kind it is cell-based. The conditions noted are these: chemically modified gRNA and Cas9 mRNA; 72 hours post electroporation. Here is the method: For FIGS. 1-7 (as appropriate), activity of the gRNAs was quantified by a Surveyor Digest, gel electrophoresis, and densitometry (Guschin et al., Methods Mol. Biol., 2010, 649:247-256).
Unstimulated or stimulated CD3^−CD56^+ NK cells were nucleofected using the AMAXA nucleofection system (Human Macrophage Kit, Lonza Group, Basel, Switzerland). Cells were counted and resuspended at a density of 3.0×10^6 cells in 100 μL of Resuspension buffer, and the following reagents were added to the cells and buffer prior to nucleofection: 10 μg, 15 μg, or 20 μg mRNA Cas9 (TriLink. BioTechnologies, San Diego, Calif.), and 10 μg, 20 μg, or 30 μg gRNA (TriLink BioTechnologies, San Diego, Calif.). Three days after nucleofection, cells were harvested and gRNA activity was measured as above.

A further series deals with TIGIT. The series is described as follows: TIGIT expression in knockout NK cells by flow cytometry. Type of series: cell-based, human. To be noted: with Cas9 mRNA, compared to matched donor samples electroporated with Cas9 mRNA alone; five days after electroporation; n=2 donors. The procedure: 3×10^6 NK cells from two donors (donors 407 and 613) stimulated with aAPCs were electroporated using the optimized NEON electroporation conditions with 10 μg Cas9 mRNA and 10 μg gRNA. Five days after electroporation, cells were harvested and stained with antibodies for CD56, CD3, TIGIT, and SYTOX Blue viability dye. Cells were gated on single cells (FSC-H vs FSC-A), CD56^+, CD3^−, SYTOX Blue^−, and TIGIT^+. TIGIT expression in knockout cells was compared to matched donor samples electroporated with Cas9 mRNA alone.
In general terms: Flow cytometry measures light scatter and fluorescence of single cells or particles in a stream.

Another series deals with CISH. As to the kind of experiment: CISH expression in NK cells after electroporation, protein lysates on Wes machine with CISH-specific antibody. Type of series: cell-based, human. To be noted: with Cas9 mRNA, compared to matched donor samples electroporated with Cas9 mRNA alone; five days after electroporation; n=3 donors. The procedure: NK cells (3×10^6) from three donors (donors 070, 380, and 437) stimulated with aAPCs were electroporated using the optimized NEON electroporation conditions with 10 μg Cas9 mRNA and 10 μg CISH gRNA. Five days after electroporation, cells were harvested and protein lysates were run with a CISH-specific antibody on a Wes machine (Protein Simple, San Jose, Calif.) and CISH expression (area under peak) normalized to ([…] was analyzed using Compass Software (Protein Simple, Bio-Techne, Minneapolis, Minn.). Results are shown in FIG. 9.

For “PD1 gRNA: guide RNA CCUGCUCGUGGUGACCGAAG (SEQ ID NO: 11), chemically modified (chemically modified, pattern not given here)”, the “Gene modification of NK cells” value in the series on PD1 was “gene modification of NK cells was induced”.
Turning to “TIGIT gRNA: guide RNA GACCUGGGUCACUUGUGCCG (SEQ ID NO: 13) (listed as RNA, chemistry not given here)”, the TIGIT expression entry in the series with TIGIT was “decreased”.
As to “CISH gRNA: guide RNA GGGUUCCAUUACGGCCAGCG (SEQ ID NO: 14) (listed as RNA, chemistry not given here)”, the CISH expression result in the series on CISH is on record as “decreased”.
